From paper PMC9320028, “A Series of New Pyrrole Alkaloids with ALR2 Inhibitory Activities from the Sponge Stylissa massa” (Marine Drugs, 2022) come the findings set out here.

In assay [1] the target is T1, ALR2 (AKR1B1, aldose reductase) (Homo sapiens, UniProt P15121).
T1 construct: The plasmid (pET28b, Novagen) containing the open reading frame of the human ALR2 gene; hexa-histidine (cleaved yes); made in house; host or cells: E. coli BL21 gold (DE3)
Briefly: ALR2 enzyme assay (in vitro). The settings on record: for inhibition at 20 µM: read-out: ALR2 inhibition rate. The assay is classed as biochemical. The method, then: (§1) For the AKR1B1 enzyme assay and SPR measurements, the protein was expressed and purified using the protocol related to the one reported previously. The plasmid (pET28b, Novagen) containing the open reading frame of the human ALR2 gene was kindly provided by Atagenix, Wuhan, Hubei, China. The E. coli strain BL21 gold (DE3) (Novagen) was used to express the hexa-histidine tagged protein after induction with IPTG (Roth) for 16 h at 293 K. The pellet from a 4 L culture was resuspended in a buffer containing 20 mM Tris and 500 mM NaCl (pH 8.0) before being sonicated and centrifuged. A HiTrap chelating HP column (GE Healthcare) was loaded with the supernatant. After a short washing step with a low imidazole concentration, the fusion protein was eluted by applying a gradient of imidazole. The buffer was exchanged with 20mM Tris-HCl, 10 mM NaCl, 1mM EDTA, and the tag cleaved by thrombin (yuanyeBio-Technology Co. Ltd. Shanghai, China). A Hiprep DEAE FastFlow 16/10 column (GE Healthcare) was loaded with the remaining solution. A NaCl gradient was used to elute the ALR2 from the column.
In the first step of the polyol pathway, glucose reduction is accompanied by the conversation of NADPH to NADP, where only NADPH has an obvious spectral absorption around 340 nm and NADP has none. Thus, the decrease in OD340nm can represent the consumption of NADPH. Therefore, we detect the change of OD340nm before and after reaction to screen the effective ARIs or evaluate the AR activity; assays with epalrestat were used as positive controls. Briefly, the incubation system contains 10 µL ALR2 enzyme (20 µg/mL), 80 µL DL-glyceraldehyde (0.16 mmol/L) as the substrate, 1.0 mmol/L NADPH·4Na as a coenzyme, and 0.1 mol/L PBS (pH = 6.2). […] Then, the absorbance was measured using FlexStation 3 Reader (Molecular Devices, San Francisco, CA, USA) at 340 nm. The absorbance of wells treated with PBS and NADPH was considered as 100% (OD1) and the absorbance of wells treated with PBS and DL-glyceraldehyde was considered as 0% (OD2); the inhibitory rate was calculated by the formula ODcompounds − OD2/OD1 − OD2. […]

Assay [2] concerns the target T2, ALR2 (Homo sapiens, UniProt P15121).
T2 construct: The plasmid (pET28b, Novagen) containing the open reading frame of the human ALR2 gene; hexa-histidine (cleaved yes); made in house; host or cells: E. coli BL21 gold (DE3)
Briefly: Surface plasmon resonance (SPR) binding assay, Biacore T200. The conditions noted are these: ALR2 immobilized on CM5 chip, PBS-P+ buffer, room temperature; read-out: KD value (binding between ALR2 and compound, SPR). As for the experimental part:
as §1
SPR binding analysis methodology can be used to study molecular interactions. Herein, SPR was applied to measure the interactions between compounds 13/14 and ALR2. Initially, ALR2 was prepared in 10 mM sodium acetate (pH 5.0) and then immobilized covalently by an amine-coupling reaction on a CM5 sensor chip. […]
Background: In SPR one partner is held on a chip, and binding of the other changes the refractive index at the surface.

The inhibition is the percentage by which the read-out fell short of the control. Broadly, the Kd is a measure of binding affinity in units of concentration. As a reminder, the IC50 is the point on the concentration scale where inhibition reaches its midpoint.

“And” between values parts separate entries of the source, which are not always exact repeats. Identical values can stand only once.

As to `NC1=NC(=O)/C(=C2\CCNC(=O)c3[nH]ccc32)N1` [Compound 13], the inhibition at 20 µM in assay [1] is > 50%. Also, the Kd in assay [2] was determined as 12.5 µM.
`NC1=NC(=O)/C(=C2/CCNC(=O)c3[nH]ccc32)N1` [Compound 14]: the inhibition at 20 µM in assay [1] is > 50%. For the same molecule, in assay [1] (recombinant ALR2, DL-glyceraldehyde substrate, NADPH, PBS pH 6.2, 10 min at 25 °C, OD340nm, read-out: IC50 of ALR2 inhibitory activity), the IC50 was determined as 13.1 µM. In addition, in assay [2], the Kd was 6.9 µM and 6.89 µM.
